Source: paper PMC5554537 (Frontiers in Pharmacology, 2017)
Values joined by “and” are separate entries in the source; they are usually repeats but may differ in a detail not shown here. Identical values can stand only once. Like-named read-outs stand apart in the source and are kept apart here.

Assays:
[1] = Compartmental plasma PK model; assay type: in vivo; parameters: Absorption rate constant Ka: unit not given here; conditions: for Central compartment volume V1: 1-Oxide and Nor-oxide values fixed; for Absorption rate constant Ka: i.p. dosing compartment, SN30000 value fixed
From the text: This model, shown schematically in Figure 9, is based on total (free + bound) plasma concentrations; the major metabolites (M14, M13, and M18) are explicit and clearance of SN30000 occurs only by reduction to M14. The i.p. bioavailability of SN30000 was modeled with an additional term for loss from the peritoneal compartment (kloss).

[2] = Stability in mouse liver homogenates (QC samples); assay type: physicochemical
From the text: using octa-deuterated internal standards of SN30000, M13 and M14 synthesised as previously reported (Wang et al., 2012). Intra- and inter-day precision (expressed as relative standard deviation (RSD) and accuracy (expressed as percentage of the nominal value) were deter mined by analy sis of replicates (n=6) of low and high quality control (QC) samples on three different days. The lower limit of quantitation (LLOQ) was defined as the lowest concentration providing RSD and accuracy < 20%. Recovery from plasma and liver ho mogenates was tested at the three QC levels. The recoveries were evaluated by comparing extracted samples with blank extracted solutions spiked with analytes of the same amount.
Matrix effects, defined as the change in response due to the presence of other substances in the samples, were evaluated by comparing the analytes diluted into the blank plasma or liver extracted solution with that of the same stock solutions diluted in water. Three different concentration levels (low, medium and high QC) were evaluated by analysing three samples at each level. Accuracy , precision, recovery and matrix effects were all acceptable over the concentration ranges evaluated for plas ma (Supplementary Table 1) and for liver homogenates (Supplementary Table 2).
Stability of the analytes in mouse plasma (Supplementary Table 3) or liver homogenate (Supplementary Table 4) was confirmed during holding of QC samples on ice for up to 2 h under nor mal laboratory lighting, although there was a trend towards loss of SN30000 in plasma samples held in clear microcentrifuge tubes which may reflect the known photosensitivity of the compound (Gu et al., 2014). This loss was reduced by use of red microcentrifuge tubes, and eliminated by black tubes. Stability in both matrices was also confir med for one month storage at -80°C and for three freeze-thaw cycles, while MeOH-deproteinised samples w ere stable for 12 h at 4°C in the autosampler (Supplementary Tables

[3] = biological target: T1, mouse brain acetylcholinesterase (Mus musculus, UniProt P21836); experiment: biochemical; conditions: for IC50: mouse brain homogenate, 37°C
T1 construct: from tissue; host or cells: mouse brain homogenate
T1 sequence (P21836 32-614): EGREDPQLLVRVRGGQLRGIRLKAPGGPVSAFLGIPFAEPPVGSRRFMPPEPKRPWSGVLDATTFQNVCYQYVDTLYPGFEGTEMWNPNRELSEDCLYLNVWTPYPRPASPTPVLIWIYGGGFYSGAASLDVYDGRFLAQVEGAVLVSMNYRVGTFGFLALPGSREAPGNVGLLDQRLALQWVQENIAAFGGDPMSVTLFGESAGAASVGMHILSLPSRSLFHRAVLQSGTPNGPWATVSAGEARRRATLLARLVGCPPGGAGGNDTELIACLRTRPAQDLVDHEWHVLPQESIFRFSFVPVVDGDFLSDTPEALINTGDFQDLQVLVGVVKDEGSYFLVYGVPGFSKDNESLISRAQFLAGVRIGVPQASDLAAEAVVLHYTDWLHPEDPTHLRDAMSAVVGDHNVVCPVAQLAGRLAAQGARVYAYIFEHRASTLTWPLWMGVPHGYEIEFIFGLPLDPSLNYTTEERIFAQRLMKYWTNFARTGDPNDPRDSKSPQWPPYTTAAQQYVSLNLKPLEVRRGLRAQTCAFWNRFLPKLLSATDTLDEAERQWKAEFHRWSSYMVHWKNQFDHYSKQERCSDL
Experimental: TABLE 10: Inhibition of mouse brain acetylcholinesterase activitya by SN30000 and related compounds […]
aThe acetylcholinesterase inhibition assay is based on Obregon et al., 2005. Mouse brain homogenate was prepared in potassium phosphate buffer (100 mM, pH 7.4), which was pre-incubated with dithiobisnitrobenzoate (final concentration 1 mM) at 37°C for 10 min. After adding acetylthiocholine (final concentration 0.6 mM), the formation of 5-thio-2-nitrobenzoate was measured by monitoring absorbance (Spectramax- M2 spectrophotometer) at 412 nm every 30 s for 10 min. Negative controls (DMSO or saline) and positive control […]
IC50 values are based on 3-4 deter minations per compound.

[4] = liver homogenate deproteinised in 3 vol MeOH, 12 h autosampler at 4°C, nominal SN30000 0.5, M14 0.25, M13 0.1 µM
[5] = liver homogenate deproteinised in 3 vol MeOH, 12 h autosampler at 4°C, nominal SN30000 5, M14 2.5, M13 1 µM
[6] = liver homogenate deproteinised in 3 vol MeOH, 12 h autosampler at 4°C, nominal SN30000 50, M14 25, M13 10 µM
[7] = liver homogenate, 1 month at -80°C, nominal SN30000 0.5, M14 0.25, M13 0.1 µM
[8] = liver homogenate, 1 month at -80°C, nominal SN30000 5, M14 2.5, M13 1 µM
[9] = liver homogenate, 1 month at -80°C, nominal SN30000 50, M14 25, M13 10 µM
[10] = liver homogenate, 1h on ice, clear tubes, nominal SN30000 0.5, M14 0.25, M13 0.1 µM
[11] = liver homogenate, 1h on ice, clear tubes, nominal SN30000 5, M14 2.5, M13 1 µM
[12] = liver homogenate, 1h on ice, clear tubes, nominal SN30000 50, M14 25, M13 10 µM
[13] = liver homogenate, 2h on ice, nominal SN30000 0.5, M14 0.25, M13 0.1 µM
[14] = liver homogenate, 2h on ice, nominal SN30000 5, M14 2.5, M13 1 µM
[15] = liver homogenate, 2h on ice, nominal SN30000 50, M14 25, M13 10 µM
[16] = liver homogenate, three freeze-thaw cycles, nominal SN30000 0.5, M14 0.25, M13 0.1 µM
[17] = liver homogenate, three freeze-thaw cycles, nominal SN30000 5, M14 2.5, M13 1 µM
[18] = liver homogenate, three freeze-thaw cycles, nominal SN30000 50, M14 25, M13 10 µM
[19] = NIH-III, mouse, in vivo, model clearance of the compound, read-out: CL (converted)

SMILES	Central compartment volume V1 [1]	Bias [2, 4]	Measured conc [2, 4]	Bias [2, 5]	Measured conc [2, 5]	Bias [2, 6]	Measured conc [2, 6]	Measured conc [2, 7]	Bias [2, 8]	Measured conc [2, 8]	Bias [2, 9]	Measured conc [2, 9]	Bias [2, 10]	Measured conc [2, 10]	Bias [2, 11]	Measured conc [2, 11]	Bias [2, 12]	Measured conc [2, 12]	Bias [2, 13]	Measured conc [2, 13]	other results
c1c2c(cc3nc(CCCN4CCOCC4)nnc13)CCC2 [M13]	2.2 L/kg	7.07%	0.11 µM	10.75%	1.11 µM	6.40%	10.64 µM	0.11 µM	4.04%	1.03 µM	5.05%	9.12 µM	11.64%	0.11 µM	10.33%	1.10 µM	7.77%	10.78 µM	2.48%	0.10 µM	clearance ([1]; NIH-III, mouse, plasma, other: i.p. and i.v. datasets fitted simultaneously, model clearance of the compound, read-out: CL (converted)): 1280 mL/min/kg; Vd ([1]; NIH-III, mouse, plasma, other: i.p. and i.v. datasets fitted simultaneously, read-out: Steady state volume VSS): 11.6 L/kg; Approximate % suppression per °C of CL ([1]; mouse, in vivo): ~23%; Peripheral compartment volume V2 ([1]; mouse, in vivo): 9.38 L/kg; Bias [2, 14]: 3.25%; Measured conc [2, 14]: 1.03 µM; Bias [2, 15]: 1.11%; Measured conc [2, 15]: 10.11 µM; Bias [2, 16]: -7.15%; Measured conc [2, 16]: 0.093 µM; Bias [2, 17]: -4.26%; Measured conc [2, 17]: 0.96 µM; Bias [2, 18]: 5.64%; Measured conc [2, 18]: 10.56 µM
[O-][n+]1nc(CCCN2CCOCC2)nc2cc3c(cc21)CCC3 [M14]	2.2 L/kg	3.86%	0.26 µM	5.73%	2.64 µM	5.22%	26.30 µM	0.25 µM	4.04%	2.35 µM	5.13%	23.54 µM	5.21%	0.26 µM	1.78%	2.54 µM	3.05%	25.76 µM	8.20%	0.27 µM	Temperature effect (N) on V1 ([1]; (1+ΔT)^-N): 0.48; Approximate % suppression per °C of CL ([1]; NIH-III, mouse, in vivo): ~82%; Approximate % suppression per °C of V1 ([1]; NIH-III, mouse, in vivo): ~28%; Intercompartmental clearance Clic ([1]; NIH-III, mouse, in vivo): 77.3 mL/min/kg; Peripheral compartment volume V2 ([1]; NIH-III, mouse, in vivo): 3.51 L/kg; clearance [1, 19]: 1020 mL/min/kg; Absorption rate constant Ka [1]: 4.43; IC50 [3]: 58.3 µM and 58 µM; Bias [2, 7]: 1.76%; Bias [2, 14]: 9.32%; Measured conc [2, 14]: 2.73 µM; Bias [2, 15]: 0.75%; Measured conc [2, 15]: 25.19 µM; Bias [2, 16]: -4.84%; Measured conc [2, 16]: 0.24 µM; Bias [2, 17]: -5.62%; Measured conc [2, 17]: 2.36 µM; Bias [2, 18]: 5.39%; Measured conc [2, 18]: 26.35 µM
O=C(O)CCc1nc2cc3c(cc2[n+]([O-])n1)CCC3 [M18]	0.43 L/kg	–	–	–	–	–	–	–	–	–	–	–	–	–	–	–	–	–	–	–	clearance [1, 19]: 3.83 mL/min/kg; Inhibition at 300 μM ([3]; mouse brain acetylcholinesterase, 300 μM): no inhibition; IC50 [3]: > 300 µM
[O-][n+]1nc(CCCN2CCOCC2)[n+]([O-])c2cc3c(cc21)CCC3 [SN30000, 3-(3-Morpholinopropyl)-7,8-dihydro-6H-indeno[5,6-e][1,2,4]triazine 1,4-dioxide]	1.95 L/kg	3.36%	0.52 µM	2.86%	5.14 µM	6.75%	53.37 µM	0.52 µM	4.40%	4.77 µM	4.71%	47.06 µM	2.46%	0.51 µM	4.72%	5.24 µM	6.87%	53.43 µM	-3.26%	0.48 µM	Temperature effect (N) on Kloss for i.p. SN30000 ([1]; (1+ΔT)^-N): 2.80; Intercompartmental clearance Clic ([1]; NIH-III, mouse, in vivo): 18.7 mL/min/kg; Peripheral compartment volume V2 ([1]; NIH-III, mouse, in vivo): 0.64 L/kg; Approximate % suppression per °C of Kloss for i.p. SN30000 ([1]; NIH-III, mouse, in vivo, ip): ~86%; clearance ([1]; NIH-III, mouse, in vivo, model clearance): 189 mL/min/kg; Absorption rate constant Ka [1]: 60; Kloss for i.p. SN30000 ([1]; loss from peritoneal compartment): 67.48 L/h; IC50 [3]: 131 µM; Bias [2, 7]: 1.98%; Bias [2, 14]: 2.72%; Measured conc [2, 14]: 5.14 µM; Bias [2, 15]: 1.20%; Measured conc [2, 15]: 50.60 µM; Bias [2, 16]: -10.74%; Measured conc [2, 16]: 0.45 µM; Bias [2, 17]: -8.29%; Measured conc [2, 17]: 4.59 µM; Bias [2, 18]: 4.78%; Measured conc [2, 18]: 52.39 µM
